# Assay results as given in patent publication US8492543B2, “Method for producing quinazoline derivative” (Eisai R&D Management Co., Ltd., priority 2007, dated 2013).
# Like-named read-outs stand apart in the source and are kept apart here.
# Legend:
# CYPs = assay: Induction potency on CYPs, overall statement (cryopreserved human hepatocytes); settings: CYP1A1, CYP1A2, CYP3A4; 1, 3 and 10 μM
# Procedure: Cryopreserved human hepatocytes (XenoTeck) were rapidly thawed at 37° C., and viable cells were obtained using Hepatocytes Isolation Kit (Nosan Corporation). After cells prepared were diluted with ice cold William's Medium E (10% FBS, +PSG) to give a concentration of 5×10^5 viable cells/mL, the cells were seeded onto a 48-well collagen-coated plate (BD Biosciences) at a concentration of 1×10^5 cells/cm^2 and cultured at 37° C. in 5% CO2 for 24 hours. Then, the medium was replaced with Hepato-STIM (registered trade mark: BD Biosciences) (+EGF, PSG, −FBS), and the cells were further cultured at 37° C. in 5% CO2 for 24 hours. […] The culture medium containing test compound, β-NF or Rif was replaced every 24 hours. […] The levels of mRNA for CYP1A1 and GAPDH were quantified using SYBR Green PCR Core Reagents Kit (Applied Biosystems), and those for CYP1A2 and that of CYP3A4 were measured using Taqman PCR Core Reagents Kit (Applied Biosystems) and ABI Prism 7900 Sequence Detection System (Applied Biosystems). […]
# (§1) The ability to induce CYP1A2 or CYP3A4 was calculated in the same manner described above.
# CYP1A2 [1] = settings: human, hepatocytes
# Procedure: (§2) Cryopreserved human hepatocytes (XenoTeck) were rapidly thawed at 37° C., and viable cells were obtained using Hepatocytes Isolation Kit (Nosan Corporation). After cells prepared were diluted with ice cold William's Medium E (10% FBS, +PSG) to give a concentration of 5×10^5 viable cells/mL, the cells were seeded onto a 48-well collagen-coated plate (BD Biosciences) at a concentration of 1×10^5 cells/cm^2 and cultured at 37° C. in 5% CO2 for 24 hours. Then, the medium was replaced with Hepato-STIM (registered trade mark: BD Biosciences) (+EGF, PSG, −FBS), and the cells were further cultured at 37° C. in 5% CO2 for 24 hours. […] The culture medium containing test compound, β-NF or Rif was replaced every 24 hours. Test compound, β-NF and Rif were each dissolved in dimethyl sulfoxide (DMSO: Wako Pure Chemical Industries, Ltd.), and culture medium containing test compound (final concentrations; 1, 3 and 10 μM), β-NF (final concentration; 10 μM) or Rif (final concentration; 10 μM) was prepared by adding them to Hepato-STIM(+EGF, PSG, −FBS), respectively. Final concentration of DMSO was set to be 0.1%, and culture medium containing 0.1% DMSO was used for control. After completion of the treatment, the cells were washed with PBS once, and total RNA was purified using Total RNA Purification Kit (Applied Biosystems). The purified total RNA was subjected to reverse transcription reaction using TaqMan Reverse Transcription Reagents (Applied Biosystems) to synthesize cDNA, where oligo dT was used as a primer. The reaction was carried out using Gene Amp PCR system 9700 at 25° C. for 10 minutes, followed by at 48° C. for 60 minutes. Then, reverse transcriptase was deactivated at 95° C. for 10 minutes. The levels of mRNA for CYP1A1 and GAPDH were quantified using SYBR Green PCR Core Reagents Kit (Applied Biosystems), and those for CYP1A2 and that of CYP3A4 were measured using Taqman PCR Core Reagents Kit (Applied Biosystems) and ABI Prism 7900 Sequence Detection System (Applied Biosystems).
# (§3) The ability of a test compound to induce CYP1A1 was calculated as follows: Ability of a test compound to induce CYP1A1(%)={[(amount of mRNA of CYP1A1 in test compound treated cells)/(amount of mRNA of GAPDH in test compound treated cells)]/[(amount of mRNA of CYP1A1 in control cells)/(amount of mRNA of GAPDH in control cells)]−1}/{[(amount of mRNA of CYP1A1 in positive control treated cells)/(amount of mRNA of GAPDH in positive control treated cells)]/[(amount of mRNA of CYP1A1 in control cells)/(amount of mRNA of GAPDH in control cells)]−1}×100
# as §1
# CYP1A1 = settings: human, hepatocytes
# Procedure: Cryopreserved human hepatocytes (XenoTeck) were rapidly thawed at 37° C., and viable cells were obtained using Hepatocytes Isolation Kit (Nosan Corporation). After cells prepared were diluted with ice cold William's Medium E (10% FBS, +PSG) to give a concentration of 5×10^5 viable cells/mL, the cells were seeded onto a 48-well collagen-coated plate (BD Biosciences) at a concentration of 1×10^5 cells/cm^2 and cultured at 37° C. in 5% CO2 for 24 hours. Then, the medium was replaced with Hepato-STIM (registered trade mark: BD Biosciences) (+EGF, PSG, −FBS), and the cells were further cultured at 37° C. in 5% CO2 for 24 hours. […] The culture medium containing test compound, β-NF or Rif was replaced every 24 hours. Test compound, β-NF and Rif were each dissolved in dimethyl sulfoxide (DMSO: Wako Pure Chemical Industries, Ltd.), and culture medium containing test compound (final concentrations; 1, 3 and 10 μM), β-NF (final concentration; 10 μM) or Rif (final concentration; 10 μM) was prepared by adding them to Hepato-STIM(+EGF, PSG, −FBS), respectively. Final concentration of DMSO was set to be 0.1%, and culture medium containing 0.1% DMSO was used for control. […] The levels of mRNA for CYP1A1 and GAPDH were quantified using SYBR Green PCR Core Reagents Kit (Applied Biosystems), and those for CYP1A2 and that of CYP3A4 were measured using Taqman PCR Core Reagents Kit (Applied Biosystems) and ABI Prism 7900 Sequence Detection System (Applied Biosystems).
# as §3
# CYP3A4 = assay: Induction potency of drug metabolizing enzyme (CYP) using cryopreserved human hepatocytes: CYP3A4 mRNA; settings: approx. 48 hours, mRNA relative to Rif 10 μM
# Procedure: Cryopreserved human hepatocytes (XenoTeck) were rapidly thawed at 37° C., and viable cells were obtained using Hepatocytes Isolation Kit (Nosan Corporation). After cells prepared were diluted with ice cold William's Medium E (10% FBS, +PSG) to give a concentration of 5×10^5 viable cells/mL, the cells were seeded onto a 48-well collagen-coated plate (BD Biosciences) at a concentration of 1×10^5 cells/cm^2 and cultured at 37° C. in 5% CO2 for 24 hours. Then, the medium was replaced with Hepato-STIM (registered trade mark: BD Biosciences) (+EGF, PSG, −FBS), and the cells were further cultured at 37° C. in 5% CO2 for 24 hours. […] The culture medium containing test compound, β-NF or Rif was replaced every 24 hours. Test compound, β-NF and Rif were each dissolved in dimethyl sulfoxide (DMSO: Wako Pure Chemical Industries, Ltd.), and culture medium containing test compound (final concentrations; 1, 3 and 10 μM), β-NF (final concentration; 10 μM) or Rif (final concentration; 10 μM) was prepared by adding them to Hepato-STIM(+EGF, PSG, −FBS), respectively. […] The levels of mRNA for CYP1A1 and GAPDH were quantified using SYBR Green PCR Core Reagents Kit (Applied Biosystems), and those for CYP1A2 and that of CYP3A4 were measured using Taqman PCR Core Reagents Kit (Applied Biosystems) and ABI Prism 7900 Sequence Detection System (Applied Biosystems).
# as §3, §1
# CYP1A2 [2] = assay: Induction potency of drug metabolizing enzyme (CYP) using cryopreserved human hepatocytes: CYP1A2 mRNA; settings: 10 μM, approx. 48 hours, mRNA relative to β-NF 10 μM
# Procedure: as §2, §3, §1
smiles,measurement,setting,value
"CNc1nc(-c2cccc(NC(=O)c3ccc(C(=O)OC)cc3)c2)c2cc(OC)c(OC)cc2n1 [Example 10, methyl N-[3-(6,7-dimethoxy-2-methylaminoquinazolin-4-yl)phenyl]terephthalamic acid]",induction potency on CYPs compared with the comparative example,CYPs,lower induction potency on CYPs than the compound of the comparative example
"COc1cc2nc(Cl)nc(-c3cccc(NC(=O)OC(C)(C)C)c3)c2cc1OC [Example 1, t-butyl [3-(2-chloro-6,7-dimethoxyquinazolin-4-yl)phenyl]carbamate]",Induction Ability compared to positive control (%) CYP1A2,CYP1A2 [1]; 1 μM,−0.1%
same,Induction Ability compared to positive control (%) CYP1A2,CYP1A2 [1]; 3 μM,−0.7%
same,Induction Ability compared to positive control (%) CYP1A2,CYP1A2 [1]; 10 μM,2.5%
same,Induction Ability compared to positive control (%) CYP1A1,CYP1A1; 1 μM,0.1%
same,Induction Ability compared to positive control (%) CYP1A1,CYP1A1; 3 μM,0.6%
same,Induction Ability compared to positive control (%) CYP1A1,CYP1A1; 10 μM,4.6%
same,Induction Ability compared to positive control (%) CYP3A4,CYP3A4; 1 μM,−2.4%
same,Induction Ability compared to positive control (%) CYP3A4,CYP3A4; 3 μM,−3.4%
same,Induction Ability compared to positive control (%) CYP3A4,CYP3A4; 10 μM,−4.0%
"O=c1cc(-c2ccccc2)oc2ccc3ccccc3c12 [β-naphthof lavone, β-naphthoflavone]",Induction Ability compared to positive control (%) CYP1A2,CYP1A2 [2],100.0%
